Assay results reported in patent publication US9580449B2, “Compositions and methods for the production of pyrimidine and pyridine compounds with BTK inhibitory activity” (Merck Patent GmbH, priority 2011, dated 2017).

Target: full-length human BTK (Homo sapiens (Human), UniProt Q06187)
Experiment: BTK IC50 enzyme assay (microfluidic off-chip mobility shift kinase assay)
Type: biochemical
Conditions: incubated for 90 min. at 27 C; read-out: Time Dependent BTK Enzyme Assay IC50
Method: The following describes a microfluidic, off-chip mobility shift kinase assay used to measure inherent potency of compounds against BTK enzyme. Compounds described by embodiments of the present invention were assayed using this protocol and the data from the same is recorded in Table 2 within the column labeled: “Time Dependent BTK Enzyme Assay IC50”.
Stopped reactions were monitored at −2 PSI, −3000 V/−700 V in a LabChip 3000 plate reader from Caliper Life Sciences, a PerkinElmer Company (Hopkinton, Mass.), and the activity was measured by off-chip mobility shift assay measuring the charge/mass difference between substrate and product resulting from peptide phosphorylation. IC50 and efficacy were determined by plotting log [Inhibitor] vs. % Activity in GeneData Screener (Basel, Switzerland). […] I<1 uM and II>1 uM.

full-length human BTK, sequence (Q06187 whole entry): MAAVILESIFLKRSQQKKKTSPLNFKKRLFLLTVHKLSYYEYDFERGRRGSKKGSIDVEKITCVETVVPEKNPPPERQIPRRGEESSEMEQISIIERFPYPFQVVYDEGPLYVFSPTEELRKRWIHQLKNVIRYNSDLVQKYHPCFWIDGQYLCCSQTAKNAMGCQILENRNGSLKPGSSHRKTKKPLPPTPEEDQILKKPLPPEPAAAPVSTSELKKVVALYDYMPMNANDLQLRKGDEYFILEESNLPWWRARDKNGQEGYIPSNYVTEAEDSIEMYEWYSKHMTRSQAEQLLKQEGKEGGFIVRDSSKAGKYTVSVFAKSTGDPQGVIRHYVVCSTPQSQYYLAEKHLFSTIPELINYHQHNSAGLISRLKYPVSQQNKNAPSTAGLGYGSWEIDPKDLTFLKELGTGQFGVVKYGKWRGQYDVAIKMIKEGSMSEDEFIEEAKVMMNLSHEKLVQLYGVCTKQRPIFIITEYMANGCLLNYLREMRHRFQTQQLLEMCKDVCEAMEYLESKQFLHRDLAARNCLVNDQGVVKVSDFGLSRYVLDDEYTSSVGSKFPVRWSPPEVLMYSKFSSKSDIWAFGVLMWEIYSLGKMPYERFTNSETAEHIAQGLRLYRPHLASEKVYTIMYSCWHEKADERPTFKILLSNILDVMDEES

Row | Compound | IC50 [nM]
1 | C=CC(=O)Nc1cccc(Oc2ncnc(N)c2-c2cccc(S(N)(=O)=O)c2)c1 [A163, N-(3-((6-amino-5-(3-sulfamoylphenyl)pyrimidin-4-yl)oxy)phenyl)acrylamide] | > 1000
2 | C=CC(=O)N1CCC(CNc2ncnc(N)c2-c2ccc(Oc3ccc(C#N)cc3)cc2)CC1 [A86, 4-(4-(4-(((1-acryloylpiperidin-4-yl)methyl)amino)-6-aminopyrimidin-5-yl)phenoxy)benzonitrile] | < 1000
3 | C=CC(=O)Nc1cccc(Oc2ncnc(N)c2-c2cnn(Cc3cc(F)cc(F)c3)c2)c1 [A183, N-(3-((6-amino-5-(1-(3,5-difluorobenzyl)-1H-pyrazol-4-yl)pyrimidin-4-yl)oxy)phenyl)acrylamide] | < 100
4 | C#CC(=O)N1C2CCC1CC(CNc1ncnc(N)c1-c1ccc(Oc3ccccc3)cc1)C2 (stereo not shown) [A68, 1-(3-(((6-amino-5-(4-phenoxyphenyl)pyrimidin-4-yl)amino)methyl)-8-azabicyclo[3.2.1]octan-8-yl)prop-2-yn-1-one] | < 100
5 | C=CC(=O)Nc1ccc(F)c(Oc2ccnc(N)c2-c2ccc(Oc3ccccc3)cc2)c1 [A158, N-(3-((2-amino-3-(4-phenoxyphenyl)pyridin-4-yl)oxy)-4-fluorophenyl)acrylamide] | < 100
6 | CC1=CC(C)=[N+]2C1=Cc1ccc(CCC(=O)N3CCN(C/C=C/C(=O)Nc4cccc(Oc5ncnc(N)c5-c5ccc(Oc6ccccc6)cc5)c4)CC3)n1[B-]2(F)F [A24, (E)-7-(3-(4-(4-((3-((6-amino-5-(4-phenoxyphenyl)pyrimidin-4-yl)oxy)phenyl)amino)-4-oxobut-2-en-1-yl)piperazin-1-yl)-3-oxopropyl)-5,5-difluoro-1,3-dimethyl-5H-dipyrrolo[1,2-c:2′,1′-f][1,3,2]diazaborinin-4-ium-5-uide] | > 1000
7 | C=CC(=O)NCCCNc1ncnc(N)c1-c1ccc(Oc2ccccc2)cc1 [A59, N-(3-((6-amino-5-(4-phenoxyphenyl)pyrimidin-4-yl)amino)propyl)acrylamide] | < 1000
8 | C=CC(=O)N1CCC2(CCN(c3ncnc(N)c3-c3ccc(Oc4ccccc4)cc3)CC2)C1 [A92, 1-(8-(6-amino-5-(4-phenoxyphenyl)pyrimidin-4-yl)-2,8-diazaspiro[4.5]decan-2-yl)prop-2-en-1-one] | < 1000
9 | C=CC(=O)Nc1cccc(Oc2ncnc(N)c2-c2ccc(Oc3ccc(F)cc3)nc2)c1 [A166, N-(3-((6-amino-5-(6-(4-fluorophenoxy)pyridin-3-yl)pyrimidin-4-yl)oxy)phenyl)acrylamide] | < 1000
10 | C=CC(=O)N1CCC(CNc2ncnc(N)c2-c2cc(F)c(Oc3ccccc3)cc2F)CC1 [A87, 1-(4-(((6-amino-5-(2,5-difluoro-4-phenoxyphenyl)pyrimidin-4-yl)amino)methyl)piperidin-1-yl)prop-2-en-1-one] | < 1000
11 | C=CC(=O)Nc1cccc(Nc2ncncc2-c2ccc(Oc3ccccc3)cc2)n1 [A167, N-(6-((5-(4-phenoxyphenyl)pyrimidin-4-yl)amino)pyridin-2-yl)acrylamide] | < 100
12 | C=CC(=O)Nc1cccc(Oc2ncnc(N)c2-c2cnn(Cc3ccc(OC)cc3)c2)c1 [A72, N-(3-((6-amino-5-(1-(4-methoxybenzyl)-1H-pyrazol-4-yl)pyrimidin-4-yl)oxy)phenyl)acrylamide] | < 100
13 | C=CC(=O)N1CCC(CNc2ncnc(N)c2-c2ccc(F)cc2)CC1 [A77, 1-(4-(((6-amino-5-(4-fluorophenyl)pyrimidin-4-yl)amino)methyl)piperidin-1-yl)prop-2-en-1-one] | > 1000

Results, then the compound that gave them:

Row | IC50 [nM] | Compound
14 | < 1000 | C=CC(=O)Nc1cccc(Oc2ncnc(N)c2-c2c(F)cc(OCc3ccccc3)cc2F)c1 [A294, N-(3-((6-amino-5-(4-(benzyloxy)-2,6-difluorophenyl)pyrimidin-4-yl)oxy)phenyl)acrylamide]
15 | < 100 | C=CC(=O)N1CCC=C(c2c(N)ncnc2Nc2ccc(Oc3ccccc3)cc2)C1 [A273, 1-(3-(4-amino-6-((4-phenoxyphenyl)amino)pyrimidin-5-yl)-5,6-dihydropyridin-1(2H)-yl)prop-2-en-1-one]
16 | < 1000 | C=CC(=O)Nc1cccc(Oc2ncnc(N)c2-c2cncc(OC)c2)c1 [A291, N-(3-((6-amino-5-(5-methoxypyridin-3-yl)pyrimidin-4-yl)oxy)phenyl)acrylamide]
17 | < 1000 | C=CC(=O)N1CCC(COc2ncnc(N)c2-c2ccc(Oc3ccccc3)cc2)CC1 [A338, 1-(4-(((6-amino-5-(4-phenoxyphenyl)pyrimidin-4-yl)oxy)methyl)piperidin-1-yl)prop-2-en-1-one]
18 | < 1000 | Nc1ncnc(NCC2CCN(C(=O)/C=C/CN3CC(F)C3)CC2)c1-c1ccc(Oc2ccccc2)cc1 [A218, (E)-1-(4-(((6-amino-5-(4-phenoxyphenyl)pyrimidin-4-yl)amino)methyl)piperidin-1-yl)-4-(3-fluoroazetidin-1-yl)but-2-en-1-one]
19 | < 100 | C=CC(=O)Nc1cccc(Oc2ncnc(N)c2-c2ccc(C(C)(C)O)cc2)c1 [A278, N-(3-((6-amino-5-(4-(2-hydroxypropan-2-yl)phenyl)pyrimidin-4-yl)oxy)phenyl)acrylamide]
20 | < 100 | C=CC(=O)Nc1cccc(Oc2ncnc(N)c2-c2ccc(OCc3ccccc3)c(F)c2)c1 [A348, N-{3-[6-Amino-5-(4-benzyloxy-3-fluoro-phenyl)-pyrimidin-4-yloxy]-phenyl}-acrylamide]
21 | < 1000 | Nc1ncnc(OC2CC3(C2)CN(C(=O)/C=C/CN2CC(F)(F)C2)C3)c1-c1ccc(Oc2ccccc2)cc1 [A223, (E)-1-(6-((6-amino-5-(4-phenoxyphenyl)pyrimidin-4-yl)oxy)-2-azaspiro[3.3]heptan-2-yl)-4-(3,3-difluoroazetidin-1-yl)but-2-en-1-one]
22 | < 100 | C=CC(=O)Nc1ccc(Oc2ncnc(N)c2-c2ccc(Oc3ccccc3)cc2)cc1 [A280, N-(4-((6-amino-5-(4-phenoxyphenyl)pyrimidin-4-yl)oxy)phenyl)acrylamide]
23 | < 1000 | CN(C)C/C=C/C(=O)N1CCC2(CC(Nc3ncnc(N)c3-c3ccc(Oc4ccccc4)cc3)C2)C1 (stereo not shown) [A226, (E)-1-(2-((6-amino-5-(4-phenoxyphenyl)pyrimidin-4-yl)amino)-6-azaspiro[3.4]octan-6-yl)-4-(dimethylamino)but-2-en-1-one]
24 | < 100 | CN(C)C/C=C/C(=O)Nc1cccc(-c2c(N)ncnc2Oc2ccc(Oc3ccccc3)cc2)c1 [A248, (E)-N-(3-(4-amino-6-(4-phenoxyphenoxy)pyrimidin-5-yl)phenyl)-4-(dimethylamino)but-2-enamide]
25 | > 1000 | Nc1cccc(-c2cnccc2Oc2ccc(Oc3ccccc3)cc2)c1 [A312, 3-(4-(4-phenoxyphenoxy)pyridin-3-yl)aniline]
26 | < 1000 | C=CC(=O)N1CCCC(Nc2ncncc2-c2ccc(Oc3ccccc3)cc2)C1 (stereo not shown) [A284, 1-(3-((5-(4-phenoxyphenyl)pyrimidin-4-yl)amino)piperidin-1-yl)prop-2-en-1-one]
27 | < 1000 | C=CC(=O)N1CCC=C(c2cnccc2Oc2ccc(Oc3ccccc3)cc2)C1 [A288, 1-(4′-(4-phenoxyphenoxy)-5,6-dihydro-[3,3′-bipyridin]-1(2H)-yl)prop-2-en-1-one]
28 | < 1000 | C=CC(=O)N1CCC(CNc2ncnc(N)c2-c2ccc(Oc3ccccn3)cc2)CC1 [A335, 1-(4-(((6-amino-5-(4-(pyridin-2-yloxy)phenyl)pyrimidin-4-yl)amino)methyl)piperidin-1-yl)prop-2-en-1-one]
